Structures are written as SMILES.

For one experiment, the target named is T1, hCES2A (Homo sapiens, UniProt O00748).
T1 sequence (O00748 27-559): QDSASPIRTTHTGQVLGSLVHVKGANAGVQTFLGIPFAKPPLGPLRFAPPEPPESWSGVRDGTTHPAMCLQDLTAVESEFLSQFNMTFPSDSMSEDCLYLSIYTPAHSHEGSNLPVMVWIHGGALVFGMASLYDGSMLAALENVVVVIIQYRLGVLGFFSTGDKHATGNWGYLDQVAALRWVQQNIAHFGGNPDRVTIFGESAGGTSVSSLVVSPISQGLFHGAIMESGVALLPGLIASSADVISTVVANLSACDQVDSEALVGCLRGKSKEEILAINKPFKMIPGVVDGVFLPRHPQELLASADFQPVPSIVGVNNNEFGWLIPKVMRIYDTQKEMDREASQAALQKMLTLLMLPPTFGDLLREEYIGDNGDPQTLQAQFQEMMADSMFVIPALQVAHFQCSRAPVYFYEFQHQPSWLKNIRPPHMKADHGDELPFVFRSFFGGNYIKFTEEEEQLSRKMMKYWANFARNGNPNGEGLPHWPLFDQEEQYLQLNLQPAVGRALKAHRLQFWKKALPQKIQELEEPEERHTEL
Kind of experiment: Inhibition of hCES2A-mediated FD hydrolysis. It counts as biochemical. As to conditions: FD substrate, mean ± SD (n = 3); read-out: IC50 (µM) hCES2A. The text has this: […] (FD) was used as the hCES2A specific probe substrate to assay the inhibitory effect of natural triterpenoids on hCES2A. The entire detailed operation process refers to the previously reported method, and finally the FD mixture was put into the multi-mode microplate reader for analysis and detection.

Another experiment relates to 3T3-L1 cells. Kind of experiment: Lipid droplet formation in differentiating 3T3-L1 cells (Oil red O staining). It counts as cell-based, mouse. As to conditions: high concentration (5 µM). As to the method: The cells were planted in a well plate and cultured for 48 h after the cells were 100% confluent. Mix inhibitors compounds 39 and 41 with solution I (10 µg/mL insulin in DMEM/F: 12 medium, 0.5 mM 3-isobutyl-1-methylxanthine and […]) to different concentrations, Then added to different wells and incubated for 48 h, then the inhibitor was mixed with solution II (5 µg/mL insulin in DMEM/F: 12 medium), then added to the wells of the same concentration and incubated for 48 h. Then, the medium in the well was replaced with DMEM/F:12 medium with different concentrations of inhibitors, and the culture was continued for 48 h.
The lipid droplets of 3T3-L1 cells were stained with Oil Red O stain kit (Beijing solebo Technology Co., Ltd., Beijing, China) after cultured for 48 h. In short, 3T3-L1 cells were washed with PBS 2 times and fixed with ORO fixative for 20–30 min, and then washed again with deionised water for 3 times. Then, 3T3-L1 cells were washed with 60% isopropanol for 5 min, immersed in oil red O solution for 10–20 min, and washed with deionised water for 3–5 times. Mayer's haematoxylin staining solution was added, the nucleus was stained for 1–2 min, then washed for 3–5 times, and Oro buffer solution was added for 1 min. Finally, distilled water was added to cover the cells. The stained lipid droplets were observed under inverted microscope (Lecai DMI8).

A further experiment deals with T2, hCES1A (Homo sapiens, UniProt P23141).
T2 construct: tissue Bioreclamation IVT lot No. X008067; host or cells: pooled human liver microsomes from 50 donors
T2 sequence (P23141 18-567): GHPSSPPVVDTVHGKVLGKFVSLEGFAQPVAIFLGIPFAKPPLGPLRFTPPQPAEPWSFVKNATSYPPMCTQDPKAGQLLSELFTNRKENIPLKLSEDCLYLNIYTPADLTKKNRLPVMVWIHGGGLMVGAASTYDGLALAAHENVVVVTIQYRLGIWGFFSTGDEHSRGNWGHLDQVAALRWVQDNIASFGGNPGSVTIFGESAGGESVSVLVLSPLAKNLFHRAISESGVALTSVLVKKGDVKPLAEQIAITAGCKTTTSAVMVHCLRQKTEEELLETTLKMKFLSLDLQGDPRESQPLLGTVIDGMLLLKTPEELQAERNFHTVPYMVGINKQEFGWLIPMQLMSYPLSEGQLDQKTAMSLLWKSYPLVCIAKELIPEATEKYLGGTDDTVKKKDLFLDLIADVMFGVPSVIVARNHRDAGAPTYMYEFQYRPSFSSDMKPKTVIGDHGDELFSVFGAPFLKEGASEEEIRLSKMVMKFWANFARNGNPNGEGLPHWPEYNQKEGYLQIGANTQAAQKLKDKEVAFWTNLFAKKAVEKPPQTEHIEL
Kind of experiment: Inhibition of hCES1A-mediated NLMe hydrolysis in human liver microsomes. It counts as biochemical. Conditions: for Inhibition mode hCES1A / Ki / IC50: NLMe substrate, HLM; for Ki: Lineweaver–Burk second plot; for IC50: mean ± SD (n = 3), read-out: IC50 (µM) hCES1A; for Reversibility of hCES1A inhibition: dose-response curves not affected by pre-incubation times. As to the method: N-Alkylated D-luciferin methyl ester (NLMe), a Specific probe for hCES1A[45], was used for assessing the inhibitory effects for triterpenoids, and BNPP was used as a positive inhibitor of hCES1A. […] Then NLMe (2 µL, 0.15 mM) was added to start the reaction. After shaking the reaction in 37 °C incubator for 10 min, 50 µL of reaction solution was removed and mixed with LDR (50 µL) to terminate the reaction. A multi-mode microplate reader was used to detect the luminescence signal of NL (the hydrolysed metabolite of NLMe). The luminescence product of NL was measured at 580 nm (gain: 140). The final volume ratio of DMSO was less than 1% (V/V).
Subsequently, various concentrations of substrates (selected according to Km) and different concentrations of inhibitors were used to determine the corresponding reaction rate, and the second slope graph of the Lineweaver–Burk diagram was used as a function of the inhibitor to calculate the corresponding inhibition constant (Ki) value. All kinetic data were fitted by the following kinetic equations (a–c), for competitive (a), non-competitive (b) and mixed inhibition (c): (a) V=(VmaxS)/[Km(1+I/Ki)+S] (b) V=(VmaxS)/[(Km+S)×(1+I/Ki)] (c) V=(VmaxS)/[(Km+S)×(1+I/αKi)] where V is the hydrolytic velocity of the reaction, Vmax is the maximum velocity. S and I are substrate (4-MUO, NLMe) and inhibitor (compound 39/41) concentrations, respectively. Ki is the inhibition constant of the tested inhibitor against the target PL and hCES1A; Km is the Michaelis constant (the substrate concentration at half of the Vmax).
All measurements were made in triplicate and the data obtained in the experiment were shown as mean ± SD. The IC50 and Ki values of the compounds with strong inhibitory effect were evaluated by nonlinear regression with graphpad prism 7.0 software (GraphPad Software, Inc., La Jolla, CA).
(Microsomes from liver hold many membrane-bound enzymes, among them those of drug oxidation.)

As a reminder, the IC50 is the midpoint of a concentration-inhibition curve. By Ki is commonly meant the dissociation constant of the complex between target and ligand, obtained from inhibition or displacement. In the case of `CC1(C)CCC2(C(=O)O)CCC3(C)C(=CCC4C5(C)C=C(O)C(=O)C(C)(C)C5CCC43C)C2C1` (stereo not drawn) [Compound 39], the IC50 at hCES2A worked out at 6.02 ± 0.75 µM. Besides, the lipid droplet formation result with 3T3-L1 cells is listed as “almost no lipid droplets were formed”. At hCES1A, the “Inhibition mode hCES1A” value is recorded as “Competitive”, the Ki was 0.043 µM, the half-maximal inhibitory concentration (IC50) is 0.055 ± 0.006 µM and the “Reversibility of hCES1A inhibition” value is reported as “reversible inhibitors”.

As for `CC(=O)OC1CCC2(C)C(CCC3(C)C2CC=C2C4C(C)C(C)CCC4(C(=O)O)CCC23C)C1(C)C` (stereo not drawn) [Compound 41], the half-maximal inhibitory concentration (IC50) on hCES2A was determined as 5.02 ± 0.88 µM. Moreover, in the experiment with 3T3-L1 cells, the lipid droplet formation result is given as “almost no lipid droplets were formed”. At hCES1A, the “Inhibition mode hCES1A” value is “Competitive”, affinity was put at a Ki of 0.019 µM, the IC50 stood at 0.014 ± 0.002 µM and the “Reversibility of hCES1A inhibition” value is on record as “reversible inhibitors”.

Source of the values: article PMC8812735, “Discovery of triterpenoids as potent dual inhibitors of pancreatic lipase and human carboxylesterase 1” (Journal of Enzyme Inhibition and Medicinal Chemistry, 2022).
